Test systems include ACHN; BT-549; CCRF-CEM; COLO 205; EKVX; HCT-116; HCT-15; K562; MCF7; MDA-MB-435; MOLT-4; NCI-H23; NCI-H522; PC-3; RPMI-8226; SF-295; SK-MEL-5; SK-OV-3; T47D; SNB-75.
Common to all, as to assay: inhibition of tumour cell growth, NCI panel, 48 h

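96-well plates; 48 h exposure; 5 concentrations. Endpoints by linear interpolation between flanking doses. Not reached: highest tested concentration assigned. GI50 marks 50% less growth.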 Calls of active or inactive are those of the source. No stated cut-off is given here; in the data, active = GI50 up to about 1.1 µM and inactive = higher.

Regarding `O=C(CCc1cc(O)cc(O)c1)NCCCNC(=O)CCc1cc(O)cc(O)c1`, the GI50 in the assay with ACHN, in the assay on BT-549, in the assay on CCRF-CEM, with COLO 205, in the assay on EKVX and in the assay on HCT-116 was > 100 µM (inactive) throughout. The GI50 with HCT-15 is greater than 100 µM; with K562 it was > 100 µM (inactive); in the assay on MCF7, > 100 µM (inactive); with MDA-MB-435, > 100 µM (inactive); in the assay on MOLT-4, > 100 µM (inactive); in the assay with NCI-H23, > 100 µM (inactive). The GI50 with NCI-H522, with PC-3, with RPMI-8226, in the assay on SF-295, with SK-MEL-5 and with SK-OV-3 was > 100 µM (inactive) in each case. Besides, the GI50 in the assay with T47D was > 100 µM (inactive).

In the case of `SCc1ccc(CS)s1`, the GI50 in the assay with BT-549 is > 100 µM (inactive); in the assay with CCRF-CEM, > 100 µM (inactive); in the assay with COLO 205, > 100 µM (inactive); with EKVX it was > 100 µM (inactive); with HCT-116 it was > 100 µM (inactive); in the assay with HCT-15, greater than 100 µM. The GI50 in the assay on K562, in the assay with MCF7, in the assay on MDA-MB-435, in the assay on MOLT-4, in the assay on NCI-H23 and in the assay with NCI-H522 was > 100 µM (inactive) each time. Also, the GI50 in the assay on PC-3 is > 100 µM (inactive); with SF-295, > 100 µM (inactive); with SK-MEL-5 it was > 100 µM (inactive); in the assay with SK-OV-3 it was > 100 µM (inactive); with SNB-75 it was 68.5 µM (inactive); in the assay with T47D, > 100 µM (inactive).

As to `Oc1ccc(/C=C/c2ccc3cccc(O)c3n2)cc1O`, the GI50 in the assay on ACHN is 3.42 µM (inactive); in the assay on BT-549, 1.61 µM (inactive); in the assay on CCRF-CEM, 0.759 µM (active); in the assay with COLO 205 it was 14.3 µM (inactive); with EKVX it was 6.11 µM (inactive); in the assay on HCT-116, 3.77 µM (inactive). Further, the GI50 was 3.29 µM with HCT-15; 3.69 µM (inactive) in the assay on K562; 2.42 µM (inactive) with MCF7; 5.9 µM (inactive) in the assay on MDA-MB-435; 0.973 µM (active) in the assay with MOLT-4; 15.6 µM (inactive) in the assay with PC-3. Moreover, the GI50 was 0.692 µM (active) with RPMI-8226; 8.17 µM (inactive) in the assay on SF-295; 3.02 µM (inactive) with SK-MEL-5; 23.7 µM (inactive) with SK-OV-3; 4.74 µM (inactive) in the assay with SNB-75; 1.75 µM (inactive) with T47D.

For `COc1cc(O)c2c(=O)c3ccccc3n(C)c2c1`, the GI50 was 14 µM (inactive) in the assay on ACHN; 52.2 µM (inactive) in the assay on BT-549; 24 µM (inactive) in the assay on CCRF-CEM; > 100 µM (inactive) with COLO 205; 0.555 µM (active) in the assay with EKVX; 10.2 µM (inactive) in the assay with HCT-116. For the same molecule, the GI50 in the assay with HCT-15 is 43.5 µM; in the assay on K562, > 100 µM (inactive); in the assay on MCF7 it was > 100 µM (inactive); with MDA-MB-435 it was > 100 µM (inactive); in the assay on MOLT-4, 8.43 µM (inactive); with NCI-H23 it was > 100 µM (inactive). Further, the GI50 in the assay on NCI-H522 is 22.3 µM (inactive); with PC-3 it was > 100 µM (inactive); in the assay on SF-295, 27.7 µM (inactive); with SK-MEL-5 it was 4.66 µM (inactive); with SK-OV-3, 26.8 µM (inactive); with T47D it was > 100 µM (inactive).

Take `COC(=O)/C=c1/c2ccccc2n2nc3ccccc3c12`: the GI50 in the assay with ACHN was > 100 µM (inactive); in the assay with BT-549, > 100 µM (inactive); with CCRF-CEM, 11.4 µM (inactive); with COLO 205 it was 27.6 µM (inactive); with EKVX, > 100 µM (inactive); in the assay with HCT-116 it was 22.8 µM (inactive). Besides, the GI50 is 77.1 µM in the assay with HCT-15; 51.4 µM (inactive) in the assay with K562; 42.6 µM (inactive) with MCF7; 33 µM (inactive) in the assay with MDA-MB-435; 6.01 µM (inactive) with MOLT-4; 66.5 µM (inactive) in the assay on NCI-H23. Further, the GI50 in the assay with NCI-H522 is 29 µM (inactive); in the assay with PC-3, > 100 µM (inactive); in the assay with RPMI-8226, 18.4 µM (inactive); in the assay with SF-295 it was > 100 µM (inactive); in the assay on SK-MEL-5, 31.6 µM (inactive); in the assay on SK-OV-3, 16 µM (inactive). Further, the GI50 with T47D was > 100 µM (inactive).

For the molecule `O=C(c1ccccc1)N1CCC(CC2(c3cc4ccccc4[nH]3)OCCO2)CC1`, the GI50 is 65.8 µM (inactive) in the assay with ACHN; 52.5 µM (inactive) in the assay on BT-549; 29.6 µM (inactive) with CCRF-CEM; 21.2 µM (inactive) in the assay with COLO 205; 66.2 µM (inactive) with EKVX; 29.3 µM (inactive) with HCT-116. For the same molecule, the GI50 in the assay on HCT-15 is 32.4 µM; in the assay with K562 it was 16.3 µM (inactive); with MCF7, 19.4 µM (inactive); with MDA-MB-435, 20.6 µM (inactive); in the assay on MOLT-4, 19.5 µM (inactive); with NCI-H23, 42.3 µM (inactive). Besides, the GI50 is 40.5 µM (inactive) in the assay with PC-3; 2.52 µM (inactive) in the assay on RPMI-8226; 39.4 µM (inactive) with SF-295; 19.7 µM (inactive) in the assay on SK-MEL-5; 56.8 µM (inactive) in the assay with SK-OV-3; 47.1 µM (inactive) in the assay with SNB-75. Also, the GI50 in the assay on T47D was 41.4 µM (inactive).

With `[N-]=[N+]=Nc1c(C=O)c(=O)n(-c2ccccc2)c2ccccc12`, the GI50 is 19 µM (inactive) with ACHN; 31.8 µM (inactive) with BT-549; 3.09 µM (inactive) in the assay with CCRF-CEM; 13.5 µM (inactive) in the assay with COLO 205; > 10 µM (inactive) with HCT-116; 18.4 µM in the assay on HCT-15. Also, the GI50 in the assay on K562 was 3.89 µM (inactive); in the assay on MCF7 it was 27 µM (inactive); in the assay with MDA-MB-435, 18.5 µM (inactive); in the assay on MOLT-4, 2.63 µM (inactive); with NCI-H23, 16.8 µM (inactive); with PC-3, 14.4 µM (inactive). For the same molecule, the GI50 in the assay with RPMI-8226 is > 10 µM (inactive); in the assay with SF-295, 75.5 µM (inactive); with SK-MEL-5, 14.1 µM (inactive); with SK-OV-3, 31.5 µM (inactive); in the assay on SNB-75 it was 24.8 µM (inactive); in the assay with T47D it was 13.9 µM (inactive).

Consider `O=C(OCc1ccc([N+](=O)[O-])cc1)N1c2ccccc2[C@@]23O[C@]24CCC[C@H]3C#C/C=C\C#C[C@H]14`, for which the GI50 with ACHN was 78.9 µM (inactive); with BT-549, > 100 µM (inactive); in the assay on CCRF-CEM it was 12.9 µM (inactive); in the assay on COLO 205, 65.6 µM (inactive); in the assay with EKVX, > 100 µM (inactive); in the assay with HCT-116 it was > 100 µM (inactive). Also, the GI50 is 89.1 µM in the assay on HCT-15; 88.1 µM (inactive) in the assay on K562; 8.18 µM (inactive) in the assay with MCF7; > 100 µM (inactive) with MDA-MB-435; 3.27 µM (inactive) with MOLT-4; > 100 µM (inactive) in the assay on NCI-H23. Further, the GI50 with NCI-H522 is 25.8 µM (inactive); in the assay with PC-3, > 100 µM (inactive); in the assay on SF-295, > 100 µM (inactive); with SK-MEL-5, > 100 µM (inactive); in the assay on SK-OV-3 it was > 100 µM (inactive); in the assay with T47D, > 100 µM (inactive).

For `O=Cc1ccc(Oc2c3ccccc3nc3ccccc23)cc1`, the GI50 was 3.61 µM (inactive) in the assay on ACHN; 14.8 µM (inactive) in the assay on BT-549; 2.71 µM (inactive) in the assay on CCRF-CEM; 3.42 µM (inactive) in the assay with COLO 205; 17.7 µM (inactive) in the assay with EKVX; 2.14 µM (inactive) in the assay on HCT-116. Also, the GI50 is 4.16 µM with HCT-15; 4.42 µM (inactive) with MCF7; 2.45 µM (inactive) with MDA-MB-435; < 0.01 µM (active) in the assay on MOLT-4; 6.34 µM (inactive) with PC-3; 2.39 µM (inactive) in the assay with RPMI-8226. Moreover, the GI50 is 19.6 µM (inactive) in the assay on SF-295; 11.5 µM (inactive) with SK-MEL-5; 4.63 µM (inactive) in the assay on SK-OV-3; 15.5 µM (inactive) with SNB-75; 3.66 µM (inactive) in the assay on T47D.

`CC(=O)C(=[N+]=[N-])C(=O)N(C)CCC#N`: the GI50 in the assay with ACHN was > 10 µM (inactive); in the assay on BT-549, > 10 µM (inactive); in the assay with CCRF-CEM, > 10 µM (inactive); in the assay on EKVX, > 10 µM (inactive); with HCT-116, > 10 µM (inactive); in the assay on HCT-15 it was greater than 10 µM. Further, the GI50 in the assay on K562, with MCF7, with MDA-MB-435, in the assay on MOLT-4, in the assay on NCI-H23 and with PC-3 was > 10 µM (inactive) throughout. The GI50 in the assay with RPMI-8226 is > 10 µM (inactive); in the assay with SF-295, > 10 µM (inactive); in the assay on SK-OV-3, > 10 µM (inactive); in the assay on SNB-75 it was 0.118 µM (active); in the assay with T47D it was > 10 µM (inactive).

For `COc1ccc(-n2cnc3c(N)nc(N)nc32)cc1`, the GI50 in the assay with ACHN is > 100 µM (inactive); with BT-549, > 100 µM (inactive); in the assay with CCRF-CEM, 25.4 µM (inactive); in the assay on COLO 205 it was > 100 µM (inactive); with EKVX, 24.8 µM (inactive); in the assay with HCT-116, > 100 µM (inactive). Besides, the GI50 in the assay on HCT-15 is greater than 100 µM; in the assay on MCF7, 90.8 µM (inactive); with MDA-MB-435, > 100 µM (inactive); with MOLT-4, 34 µM (inactive); in the assay with NCI-H23, > 100 µM (inactive); in the assay on NCI-H522 it was > 100 µM (inactive). The GI50 with PC-3 was > 100 µM (inactive); in the assay with RPMI-8226 it was > 100 µM (inactive); with SF-295 it was > 100 µM (inactive); in the assay with SK-MEL-5 it was > 100 µM (inactive); with SK-OV-3, > 100 µM (inactive); in the assay with SNB-75, 45.7 µM (inactive). The GI50 with T47D was > 100 µM (inactive).

The record behind these values is ChEMBL document CHEMBL1201862, “PubChem BioAssay data set” (2004).
